Measurements: patent US20060069132A1, “Azolecarboxamide herbicides” (priority 2004, published 2006)

How the values were obtained:
barnyardgrass = assay: Test A pre-/postemergence herbicide test; type: in vivo, Echinochloa crus-galli
Summary of the method: (§1)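 Both application timings were run together: directed soil spray over freshly planted seeds in sandy loam, and runoff spray onto 2–10 cm seedlings. Evaluation after ~10 days in greenhouse used a 0–100 visual scale versus untreated controls.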

morningglory [1] = assay: Test A pre-/postemergence herbicide test; type: in vivo, Ipomoea spp.
Summary of the method: as §1

redroot pigweed = assay: Test A pre-/postemergence herbicide test; type: in vivo, Amaranthus retroflexus
Summary of the method: as §1

bermudagrass = assay: Test C pre-/postemergence herbicide test; type: in vivo, Cynodon dactylon; details: for Plant response rating (0 = no effect, 100 = complete control), Bermudagrass: 62 g ai/ha; for Plant response rating (0 = no effect, 100 = complete control), Bermudagrass / Plant response rating, Bermudagrass: preemergence; for Plant response rating, Bermudagrass: visual, 12 to 14 days; for Bermudagrass plant response rating: Preemergence, 500 g ai/ha, scale 0 to 100, 0 no effect, 100 complete control
Summary of the method: (§2)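 Emerged plants at the 1- to 4-leaf stage (2–18 cm), or freshly planted seeds, received test chemicals in a non-phytotoxic solvent mixture with surfactant. Response was visually scored against controls after 12 to 14 days in the greenhouse, on a 0 (no effect) to 100 (complete control) scale.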

large crabgrass = assay: Test C pre-/postemergence herbicide test; type: in vivo, Digitaria sanguinalis; details: for Plant response rating (0 = no effect, 100 = complete control), Crabgrass, Large: 62 g ai/ha; for Plant response rating (0 = no effect, 100 = complete control), Crabgrass, Large / Plant response rating, Crabgrass, Large: preemergence; for Plant response rating, Crabgrass, Large: visual, 12 to 14 days; for Crabgrass, Large plant response rating: Preemergence, 500 g ai/ha, scale 0 to 100, 0 no effect, 100 complete control
Summary of the method: as §2

giant foxtail = assay: Test C pre-/postemergence herbicide test; type: in vivo, Setaria faberi; details: for Plant response rating (0 = no effect, 100 = complete control), Foxtail, Giant: 62 g ai/ha; for Plant response rating (0 = no effect, 100 = complete control), Foxtail, Giant / Plant response rating, Foxtail, Giant: preemergence; for Plant response rating, Foxtail, Giant: visual, 12 to 14 days; for Foxtail, Giant plant response rating: Preemergence, 500 g ai/ha, scale 0 to 100, 0 no effect, 100 complete control
Summary of the method: as §2

lambsquarters = assay: Test C pre-/postemergence herbicide test; type: in vivo, Chenopodium album; details: for Plant response rating (0 = no effect, 100 = complete control), Lambsquarters: 62 g ai/ha; for Plant response rating (0 = no effect, 100 = complete control), Lambsquarters / Plant response rating, Lambsquarters: preemergence; for Plant response rating, Lambsquarters: 125 g ai/ha, scale 0 (no effect) to 100 (complete control), visual, 12 to 14 days; for Lambsquarters plant response rating: Preemergence, 500 g ai/ha, scale 0 to 100, 0 no effect, 100 complete control
Summary of the method: as §2

morningglory [2] = assay: Test C pre-/postemergence herbicide test; type: in vivo, Ipomoea coccinea; parameters: key to Plant response rating, Morningglory: 0 = no effect, 100 = complete control; details: for Plant response rating (0 = no effect, 100 = complete control), Morningglory: 62 g ai/ha; for Plant response rating (0 = no effect, 100 = complete control), Morningglory / Plant response rating, Morningglory: preemergence; for Plant response rating, Morningglory: 125 g ai/ha, scale 0 (no effect) to 100 (complete control), visual, 12 to 14 days; for Morningglory plant response rating: Preemergence, 500 g ai/ha, scale 0 to 100, 0 no effect, 100 complete control
Summary of the method: as §2

common ragweed = assay: Test C pre-/postemergence herbicide test; type: in vivo, Ambrosia elatior; parameters: key to Plant response rating, Ragweed: 0 = no effect, 100 = complete control; details: for Plant response rating (0 = no effect, 100 = complete control), Ragweed: 62 g ai/ha; for Plant response rating (0 = no effect, 100 = complete control), Ragweed / Plant response rating, Ragweed: preemergence; for Plant response rating, Ragweed: 125 g ai/ha, scale 0 (no effect) to 100 (complete control), visual, 12 to 14 days; for Ragweed plant response rating: Preemergence, 500 g ai/ha, scale 0 to 100, 0 no effect, 100 complete control
Summary of the method: as §2

velvetleaf = assay: Test C pre-/postemergence herbicide test; type: in vivo, Abutilon theophrasti; details: for Plant response rating, Velvetleaf: 125 g ai/ha, scale 0 (no effect) to 100 (complete control), visual, 12 to 14 days, preemergence; for Velvetleaf plant response rating: Preemergence, 500 g ai/ha, scale 0 to 100, 0 no effect, 100 complete control
Summary of the method: as §2

rice = assay: Test C flooded paddy test; type: in vivo, Oryza sativa; details: for Plant response rating, Rice: 500 g ai/ha, visual rating after 12 to 14 days
Summary of the method: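 Postemergence sprays applied to plants 2 to 18 cm tall (1- to 4-leaf stage); paddy species grown to 2-leaf stage under flooding. After 12 to 14 days in greenhouse, visual rating versus untreated controls on 0–100 scale (0 no effect, 100 complete control).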

[3] = test system: smallflower umbrella sedge; assay: Test C flooded paddy test; type: in vivo, Cyperus difformis; details: for Plant response rating, Sedge, Umbrella: 500 g ai/ha, visual rating after 12 to 14 days
[4] = Postemergence, 500 g ai/ha, 0 to 100 scale, 0 no effect, 100 complete control
[5] = Postemergence, 2000 g ai/ha, 0 to 100 scale, 0 no effect, 100 complete control
[6] = Preemergence, 500 g ai/ha, visual rating, 0 to 100 scale (0 no effect, 100 complete control)
[7] = Preemergence, 2000 g ai/ha, 0 to 100 scale, 0 no effect, 100 complete control
[8] = 125 g ai/ha, scale 0 (no effect) to 100 (complete control)
[9] = 250 g ai/ha, scale 0 to 100 (0 no effect, 100 complete control)
[10] = 62 g ai/ha, scale 0 to 100 (0 no effect, 100 complete control)
[11] = 125 g ai/ha, scale of 0 to 100, 0 is no effect, 100 is complete control
[12] = 250 g ai/ha, scale of 0 to 100, 0 is no effect, 100 is complete control
[13] = scale 0 to 100 (0 no effect, 100 complete control)

CCCN1CCc2c(NC(=O)c3cc(C(C)(C)C)nn3CC)cccc2C1=O [Compound 65]
Plant response rating, Barnyardgrass (barnyardgrass; [4]): 45
Plant response rating, Barnyardgrass (barnyardgrass; [5]): 75
Barnyardgrass plant response rating (barnyardgrass; [6]): 55
Barnyardgrass plant response rating (barnyardgrass; [7]): 70
Plant response rating, Morningglory (morningglory [1]; [4]): 10
Plant response rating, Morningglory (morningglory [1]; [5]): 10
Morningglory plant response rating (morningglory [1]; [6]): 5
Morningglory plant response rating (morningglory [1]; [7]): 5
Plant response rating, Pigweed (redroot pigweed; [4]): 70
Plant response rating, Pigweed (redroot pigweed; [5]): 70
Pigweed plant response rating (redroot pigweed; [6]): 100
Pigweed plant response rating (redroot pigweed; [7]): 100
Plant response rating (0 = no effect, 100 = complete control), Bermudagrass (bermudagrass): 40
Plant response rating, Bermudagrass (bermudagrass; [8]): 85
Plant response rating, Bermudagrass (bermudagrass; [9]): 95
Bermudagrass plant response rating (bermudagrass): 95
Plant response rating (0 = no effect, 100 = complete control), Crabgrass, Large (large crabgrass): 50
Plant response rating, Crabgrass, Large (large crabgrass; [8]): 50
Plant response rating, Crabgrass, Large (large crabgrass; [9]): 80
Crabgrass, Large plant response rating (large crabgrass): 100
Plant response rating (0 = no effect, 100 = complete control), Foxtail, Giant (giant foxtail): 0
Plant response rating, Foxtail, Giant (giant foxtail; [8]): 0
Plant response rating, Foxtail, Giant (giant foxtail; [9]): 20
Foxtail, Giant plant response rating (giant foxtail): 60
Plant response rating (0 = no effect, 100 = complete control), Lambsquarters (lambsquarters): 20
Plant response rating, Lambsquarters (lambsquarters): 95
Lambsquarters plant response rating (lambsquarters): 100
Plant response rating (0 = no effect, 100 = complete control), Morningglory (morningglory [2]): 0
Plant response rating, Morningglory (morningglory [2]): 0
Morningglory plant response rating (morningglory [2]): 10
Plant response rating (0 = no effect, 100 = complete control), Ragweed (common ragweed): 0
Plant response rating, Ragweed (common ragweed): 0
Ragweed plant response rating (common ragweed): 60
Plant response rating, Velvetleaf (velvetleaf): 0
Velvetleaf plant response rating (velvetleaf): 60
Rice plant response rating (rice; [10]): 0
Rice plant response rating (rice; [11]): 0
Rice plant response rating (rice; [12]): 25
Plant response rating, Rice (rice; [13]): 30
Sedge, Umbrella plant response rating [3, 10]: 0
Sedge, Umbrella plant response rating [3, 11]: 20
Sedge, Umbrella plant response rating [3, 12]: 75
Plant response rating, Sedge, Umbrella [3, 13]: 80

CCOC(=O)c1cccc(NC(=O)c2cc(C(C)(C)C)nn2CC)c1C [Compound 88]
Barnyardgrass plant response rating (barnyardgrass; [4]): 85
Plant response rating, Barnyardgrass (barnyardgrass; [5]): 100
Barnyardgrass plant response rating (barnyardgrass; [6]): 75
Barnyardgrass plant response rating (barnyardgrass; [7]): 90
Morningglory plant response rating (morningglory [1]; [4]): 35
Plant response rating, Morningglory (morningglory [1]; [5]): 40
Morningglory plant response rating (morningglory [1]; [6]): 10
Morningglory plant response rating (morningglory [1]; [7]): 40
Pigweed plant response rating (redroot pigweed; [4]): 90
Plant response rating, Pigweed (redroot pigweed; [5]): 100
Pigweed plant response rating (redroot pigweed; [6]): 90
Pigweed plant response rating (redroot pigweed; [7]): 100
Plant response rating (0 = no effect, 100 = complete control), Bermudagrass (bermudagrass): 90
Plant response rating, Bermudagrass (bermudagrass; [8]): 95
Plant response rating, Bermudagrass (bermudagrass; [9]): 95
Bermudagrass plant response rating (bermudagrass): 95
Plant response rating (0 = no effect, 100 = complete control), Crabgrass, Large (large crabgrass): 90
Plant response rating, Crabgrass, Large (large crabgrass; [8]): 95
Plant response rating, Crabgrass, Large (large crabgrass; [9]): 95
Crabgrass, Large plant response rating (large crabgrass): 100
Plant response rating (0 = no effect, 100 = complete control), Foxtail, Giant (giant foxtail): 0
Plant response rating, Foxtail, Giant (giant foxtail; [8]): 50
Plant response rating, Foxtail, Giant (giant foxtail; [9]): 85
Foxtail, Giant plant response rating (giant foxtail): 100
Plant response rating (0 = no effect, 100 = complete control), Lambsquarters (lambsquarters): 95
Plant response rating, Lambsquarters (lambsquarters): 95
Lambsquarters plant response rating (lambsquarters): 100
Plant response rating (0 = no effect, 100 = complete control), Morningglory (morningglory [2]): 0
Plant response rating, Morningglory (morningglory [2]): 0
Morningglory plant response rating (morningglory [2]): 20
Plant response rating (0 = no effect, 100 = complete control), Ragweed (common ragweed): 0
Plant response rating, Ragweed (common ragweed): 0
Ragweed plant response rating (common ragweed): 20
Plant response rating, Velvetleaf (velvetleaf): 0
Velvetleaf plant response rating (velvetleaf): 50
Rice plant response rating (rice; [10]): 0
Rice plant response rating (rice; [11]): 0
Rice plant response rating (rice; [12]): 20
Plant response rating, Rice (rice; [13]): 45
Sedge, Umbrella plant response rating [3, 10]: 0
Sedge, Umbrella plant response rating [3, 11]: 50
Sedge, Umbrella plant response rating [3, 12]: 80
Plant response rating, Sedge, Umbrella [3, 13]: 80
